Data: patent US12691095B2, “Modulators of TNF-alpha activity” (Forward Therapeutics, Inc., priority 2024, dated 2026)

What follows are compounds tested against T1, TNF-α (Homo sapiens, UniProt P01375) (assay: TNF-α Induced HEK Blue Cellular Assay). Conditions: HEK Blue TNFα reporter cells stimulated with TNF-α, 24 hrs, secreted alkaline phosphatase (QUANTI-Blue, 620 nm).
T1 construct: purchased R&D 210-TA-020/CF
Assay type: cell-based
Protocol: (§1) Test articles were diluted in DMSO and serially diluted into 384 well assay plate (Corning 3765), at final concentrations ranging from […] to 0.5 nM. HEK Blue™ TNFα reporter cells were added at a final density of 10,000 cell per well in assay media [DMEM (Gibco, cat #21063-029), 10% fetal bovine serum (ExcelBio, cat #FND500), 1% Penicillin-Streptomycin (Solarbio, cat #P1400-100]. TNF-α (R&D 210-TA-020/CF) was then added to the assay plate at a final concentration of […]. This plate was then incubated for 24 hrs at 37° C. and 5% CO2. Secreted alkaline phosphatase expression was then measured using QUANTI- Blue™ (Invivogen), according to manufacturer instructions and read on an Envision microplate reader at 620 nm.
Inhibition data for test compound over a range of concentration was plotted as percentage inhibition of the test compound (100%=maximum inhibition). IC50 values were determined after correcting for background [(sample read-mean of low control)/(mean of high control-mean of low control)] where by the low control is DMSO without stimulation and high control is DMSO with stimulation. The IC50 is defined as the concentration of test compound which produces 50% inhibition and was quantified using the 4 parameter logistic equation to fit the data.

T1 sequence (P01375 77-233 limits assumed): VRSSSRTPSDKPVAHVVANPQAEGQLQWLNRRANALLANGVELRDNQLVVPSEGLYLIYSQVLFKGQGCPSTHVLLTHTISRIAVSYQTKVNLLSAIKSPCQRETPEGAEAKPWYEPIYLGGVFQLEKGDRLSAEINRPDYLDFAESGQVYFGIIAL

IC50, ≤ 100 nM:
[2H]C([2H])([2H])N1C(=O)c2cccc(Cl)c2[C@H]2C[C@@H]1c1nc3ccc(-c4ccc(P(C)(C)=O)c(F)c4)cc3n12 [Example 1, (7R,14R)-1-chloro-11-(4-(dimethylphosphoryl)-3-fluorophenyl)-6-(methyl-d3)-6,7-dihydro-7,14-methanobenzo[f]benzo[4,5]imidazo[1,2-a][1,4]diazocin-5(14H)-one]
[2H]C([2H])([2H])N1C(=O)c2cccc(Cl)c2[C@H]2C[C@@H]1c1nc3ccc(-c4ccc(P(C)(C)=O)nc4)cc3n12 [Example 2, (7R,14R)-1-chloro-11-(6-(dimethylphosphoryl)pyridin-3-yl)-6-(methyl-d3)-6,7-dihydro-7,14-methanobenzo[f]benzo[4,5]imidazo[1,2-a][1,4]diazocin-5(14H)-one]
[2H]C([2H])([2H])N1C(=O)c2c(C)ccc(Cl)c2[C@H]2C[C@@H]1c1nc3ccc(-c4ccc(P(C)(C)=O)c(F)c4)cc3n12 [Example 3, (7R,14R)-1-chloro-11-(4-(dimethylphosphoryl)-3-fluorophenyl)-4-methyl-6-(methyl-d3)-6,7-dihydro-7,14-methanobenzo[f]benzo[4,5]imidazo[1,2-a][1,4]diazocin-5(14H)-one]
CP(C)(=O)c1ncc(-c2ccc3nc4n(c3c2)[C@@H]2C[C@H]4NC(=O)c3cccc(Cl)c32)cn1 [Example 4, (7R,14R)-1-chloro-11-(2-(dimethylphosphoryl)pyrimidin-5-yl)-6,7-dihydro-7,14-methanobenzo[f]benzo[4,5]imidazo[1,2-a][1,4]diazocin-5(14H)-one]
CP(C)(=O)c1ccc(-c2ccc3nc4n(c3c2)[C@@H]2C[C@H]4NC(=O)c3cccc(Cl)c32)cn1 [Example 5, (7R,14R)-1-chloro-11-(6-(dimethylphosphoryl)pyridin-3-yl)-6,7-dihydro-7,14-methanobenzo[f]benzo[4,5]imidazo[1,2-a][1,4]diazocin-5(14H)-one]
[2H]C([2H])([2H])N1C(=O)c2c(C)ccc(Cl)c2[C@H]2C[C@@H]1c1nc3ccc(-c4ccc(P(C)(C)=O)nc4)cc3n12 [Example 6, (7R,14R)-1-chloro-11-(6-(dimethylphosphoryl)pyridin-3-yl)-4-methyl-6-(methyl-d3)-6,7-dihydro-7,14-methanobenzo[f]benzo[4,5]imidazo[1,2-a][1,4]diazocin-5(14H)-one]

These compounds were tested against T1, TNF-α (assay: TNF-α Induced THP 1 dual Cellular Assay). Conditions: THP1 dual cell reporter cells stimulated with TNF-α, 24 hrs, secreted alkaline phosphatase (QUANTI-Blue, 620 nm).
Assay type: cell-based
Protocol: as §1, with “THP1 dual cell” for “HEK Blue™ TNFα”, “QUANTI-Blue™” for “QUANTI- Blue™”
Inhibition data for test compound over a range of concentration was plotted as percentage inhibition of the test compound (100%=maximum inhibition). IC50 values were determined after correcting for background [(sample read-mean of low control)/(mean of high control-mean of low control)] whereby the low control is DMSO without stimulation and high control is DMSO with stimulation. The IC50 is defined as the concentration of test compound which produces 50% inhibition and was quantified using the 4-parameter logistic equation to fit the data.

IC50, ≤ 100 nM:
[2H]C([2H])([2H])N1C(=O)c2cc(F)cc(F)c2[C@H]2C[C@@H]1c1nc3ccc(-c4ccc(P(C)(C)=O)c(F)c4)cc3n12 [Example 13, (7R,14R)-11-(4-(dimethylphosphoryl)-3-fluorophenyl)-1,3-difluoro-6-(methyl-d3)-6,7-dihydro-7,14-methanobenzo[f]benzo[4,5]imidazo[1,2-a][1,4]diazocin-5(14H)-one]
[2H]C([2H])([2H])N1C(=O)c2cccc(F)c2[C@H]2C[C@@H]1c1nc3ccc(-c4ccc(P(C)(C)=O)c(F)c4F)cc3n12 [Example 14, (7R,14R)-11-(4-(dimethylphosphoryl)-2,3-difluorophenyl)-1-fluoro-6-(methyl-d3)-6,7-dihydro-7,14-methanobenzo[f]benzo[4,5]imidazo[1,2-a][1,4]diazocin-5(14H)-one]
[2H]C([2H])([2H])N1C(=O)c2ccc(F)c(F)c2[C@H]2C[C@@H]1c1nc3ccc(-c4ccc(P(C)(C)=O)c(F)c4)cc3n12 [Example 15, (7R,14R)-11-(4-(dimethylphosphoryl)-3-fluorophenyl)-1,2-difluoro-6-(methyl-d3)-6,7-dihydro-7,14-methanobenzo[f]benzo[4,5]imidazo[1,2-a][1,4]diazocin-5(14H)-one]
[2H]C([2H])([2H])N1C(=O)c2cccc(F)c2[C@H]2C[C@@H]1c1nc3ccc(-c4ccc(P(C)(C)=O)cc4)cc3n12 [Example 16, (7R,14R)-11-(4-(dimethylphosphoryl)phenyl)-1-fluoro-6-(methyl-d3)-6,7-dihydro-7,14-methanobenzo[f]benzo[4,5]imidazo[1,2-a][1,4]diazocin-5(14H)-one]
[2H]C([2H])([2H])N1C(=O)c2cccc(F)c2[C@H]2C[C@@H]1c1nc3ccc(-c4ccc(P(C)(C)=O)cc4F)cc3n12 [Example 17, (7R,14R)-11-(4-(dimethylphosphoryl)-2-fluorophenyl)-1-fluoro-6-(methyl-d3)-6,7-dihydro-7,14-methanobenzo[f]benzo[4,5]imidazo[1,2-a][1,4]diazocin-5(14H)-one]
[2H]C([2H])([2H])N1C(=O)c2cccc(Br)c2[C@H]2C[C@@H]1c1nc3ccc(-c4ccc(P(C)(C)=O)c(F)c4)cc3n12 [Example 18, (7R,14R)-1-bromo-11-(4-(dimethylphosphoryl)-3-fluorophenyl)-6-(methyl-d3)-6,7-dihydro-7,14-methanobenzo[f]benzo[4,5]imidazo[1,2-a][1,4]diazocin-5(14H)-one]
[2H]C([2H])([2H])N1C(=O)c2cccc(Br)c2[C@H]2C[C@@H]1c1nc3ccc(-c4ccc(P(C)(C)=O)cc4F)cc3n12 [Example 19, (7R,14R)-1-bromo-11-(4-(dimethylphosphoryl)-2-fluorophenyl)-6-(methyl-d3)-6,7-dihydro-7,14-methanobenzo[f]benzo[4,5]imidazo[1,2-a][1,4]diazocin-5(14H)-one]
[2H]C([2H])([2H])N1C(=O)c2cccc(F)c2[C@H]2C[C@@H]1c1nc3cc(F)c(-c4ccc(P(C)(C)=O)cc4)cc3n12 [Example 20, (7R,14R)-11-(4-(dimethylphosphoryl)phenyl)-1,10-difluoro-6-(methyl-d3)-6,7-dihydro-7,14-methanobenzo[f]benzo[4,5]imidazo[1,2-a][1,4]diazocin-5(14H)-one]
[2H]C([2H])([2H])N1C(=O)c2cccc(F)c2[C@H]2C[C@@H]1c1nc3cc(F)c(-c4ccc(P(C)(C)=O)nc4)cc3n12 [Example 21, (7R,14R)-11-(6-(dimethylphosphoryl)pyridin-3-yl)-1,10-difluoro-6-(methyl-d3)-6,7-dihydro-7,14-methanobenzo[f]benzo[4,5]imidazo[1,2-a][1,4]diazocin-5(14H)-one]
[2H]C([2H])([2H])N1C(=O)c2cccc(F)c2[C@H]2C[C@]1(C)c1nc3ccc(-c4ccc(P(C)(C)=O)c(F)c4)cc3n12 [Example 22, (7R,14R)-11-(4-(dimethylphosphoryl)-3-fluorophenyl)-1-fluoro-7-methyl-6-(methyl-d3)-6,7-dihydro-7,14-methanobenzo[f]benzo[4,5]imidazo[1,2-a][1,4]diazocin-5(14H)-one]
[2H]C([2H])([2H])N1C(=O)c2cccc(F)c2[C@H]2C[C@@H]1c1nc3cc(F)c(-c4ccc(P(C)(C)=O)c(F)c4)cc3n12 [Example 23, (7R,14R)-11-(4-(dimethylphosphoryl)-3-fluorophenyl)-1,10-difluoro-6-(methyl-d3)-6,7-dihydro-7,14-methanobenzo[f]benzo[4,5]imidazo[1,2-a][1,4]diazocin-5(14H)-one]
[2H]C([2H])([2H])N1C(=O)c2cccc(F)c2[C@H]2C[C@@H]1c1nc3ccc(-c4ccc(P(C)(C)=O)c(N)c4)cc3n12 [Example 24, (7R,14R)-11-(3-amino-4-(dimethylphosphoryl)phenyl)-1-fluoro-6-(methyl-d3)-6,7-dihydro-7,14-methanobenzo[f]benzo[4,5]imidazo[1,2-a][1,4]diazocin-5(14H)-one]
[2H]C([2H])([2H])N1C(=O)c2cccc(F)c2[C@H]2C[C@@H]1c1nc3ccc(-c4ccc(P(C)(C)=O)c(NC)c4)cc3n12 [Example 25, (7R,14R)-11-(4-(dimethylphosphoryl)-3-(methylamino)phenyl)-1-fluoro-6-(methyl-d3)-6,7-dihydro-7,14-methanobenzo[f]benzo[4,5]imidazo[1,2-a][1,4]diazocin-5(14H)-one]
